Laboratory results published in PMC10888562 (International Journal of Molecular Sciences, 2024).
Values joined by “and” are separate entries in the source; they are usually repeats but may differ in a detail not shown here. Identical values can stand only once. Like-named read-outs stand apart in the source and are kept apart here.

Columns and labels:
[1] = tested on: cisplatin-resistant ADDP ovarian variant; design: method as in PMID 36142383, PMID 37173934, PMID 36296713; conditions: cited from earlier work
[2] = tested on: multiple human cell lines; design: method as in PMID 36142383, PMID 37173934, PMID 36296713; conditions: average over all cell lines; cited from earlier work
A2780 ovarian = tested on: A2780 ovarian; design: method as in PMID 36142383, PMID 37173934, PMID 36296713; conditions: cited from earlier work
HT29 colon = tested on: HT29 colon; design: method as in PMID 36142383, PMID 37173934, PMID 36296713; conditions: cited from earlier work
H460 lung = tested on: H460 lung; design: method as in PMID 36142383, PMID 37173934, PMID 36296713; conditions: cited from earlier work
U87 glioblastoma = tested on: U87 glioblastoma; design: method as in PMID 36142383, PMID 37173934, PMID 36296713; conditions: cited from earlier work
Du145 prostate = tested on: Du145 prostate; design: method as in PMID 36142383, PMID 37173934, PMID 36296713; conditions: cited from earlier work
A431 skin = tested on: A431 skin; design: method as in PMID 36142383, PMID 37173934, PMID 36296713; conditions: cited from earlier work
MIA pancreas = tested on: MIA pancreas; design: method as in PMID 36142383, PMID 37173934, PMID 36296713; conditions: cited from earlier work
SJ-G2 glioblastoma = tested on: SJ-G2 glioblastoma; design: method as in PMID 36142383, PMID 37173934, PMID 36296713; conditions: cited from earlier work
BE2-C neuroblastoma = tested on: BE2-C neuroblastoma; design: method as in PMID 36142383, PMID 37173934, PMID 36296713; conditions: cited from earlier work
MCF-7 breast = tested on: MCF-7 breast; design: method as in PMID 36142383, PMID 37173934, PMID 36296713; conditions: cited from earlier work
[3] = tested on: non-tumour-derived MCF10A breast line; design: method as in PMID 36142383, PMID 37173934, PMID 36296713; conditions: cited from earlier work
HT29 colon cells [4] = tested on: HT29 colon cells; design: method as in PMID 36142383, PMID 37173934, PMID 36296713; conditions: cited from earlier work
HT29 colon cells [5] = experiment: TMRE mitochondrial membrane potential (MtMP) assay; assay type: cell-based, human; conditions: GI50 drug concentration (FCCP 20 μM)
Description: This was achieved by determining if the overproduction of ROS induced by these complexes impacts mitochondrial activity by altering MtMP. Briefly, there is evidence showing a strong correlation between increased levels of ROS and mitochondrial impairment. […] The MtMP changes recorded are measured as RFU. […] To investigate the MtMP changes in HT29 treated cells, a TMRE-MtMP Assay Kit (Abcam, Cambridge, MA, USA) was used, as previously described. In 96-well plates, 25,000 cells/mL of HT29 colon cells in DMEM were seeded. Cells were treated with a GI50 drug concentration for each complex. At 24, 48 or 72 h, cells were washed with PBS and stained with tetramethylrhodamine, ethyl ester (TMRE) (1 μM) and incubated for 30 min. TMRE was then removed, and cells were then re-washed with PBS (0.2% BSA), after which phenol red free media was added. The plates were directly scanned to measure fluorescence (expressed as RFU), using the Glo-Max®-Multimode microplate reader (Promega Corporation, Alexandra, VIC, Australia) at an excitation/emission of 549/575 nm. For the positive control, 20 μM carbonyl cyanide 4-(trifluoromethoxy) phenylhydrazone (FCCP)) was added to the cells and incubated for 10 min. The cells were washed with PBS (0.2% BSA) and stained with TMRE (1 μM) for 30 min; this was removed, and phenol red free media was added, and the final solution was scanned as mentioned above.

[6] = tested on: histone deacetylase (HDAC); experiment: Fluorometric HDAC activity assay on extracts of treated HT29 cells; assay type: cell-based, human; conditions: HT29 colon cells treated 72 h at GI50 concentration, lower RFU = decline in HDAC activity, HT29 extract control 5154 ± 40
Description: All values are expressed as RFU.
To study the HDAC activity in HT29 treated cells, a Fluorometric HDAC Activity Assay Kit ab156064 (Abcam, Cambridge, MA, USA) was used and all sample preparations were made based on the manufacturer’s protocol. A total of 10^6 cells/mL of HT29 cells were seeded in DMEM with serum deprivation for 18 h to synchronise the cells. […] Cells were then washed with cold PBS and resuspended in lysis buffer (10 mM Tris HCl (pH 7.5), 10 mM NaCl, 15 mM MgCl2, 250 mM sucrose, 0.5% NP-40 and 0.1 mM EGTA) and lysed on ice for 20 min. Cells were centrifuged through 4 mL of sucrose cushion (30% sucrose, 10mM Tris HCl (pH 7.5), 10 mM NaCl and 3mM MgCl2) at 1300× g for 10 min at 4 °C. Supernatant was discarded and the pellet was washed and resuspended in extraction buffer (50 mM HEPES-KOH (pH 7.5), 420 mM NaCl, 0.5 mM EDTA 2Na, 0.1 mM EGTA and 10% glycerol) and then sonicated for 30 s. Nuclei were lysed for 30 min on ice and centrifuged at 20,000× g for 30 min. The supernatant was collected, and the samples were prepared for the fluorometric assay according to the manufacturer’s protocol (Histone Deacetylase (HDAC) Activity Assay Fluorometric Kit ab156064, Abcam). The changes in the relative fluorescence intensity (expressed as RFU) were recorded each minute over 60 min using the Glo-Max®-Multimode microplate reader (Promega Corporation, Alexandra, VIC, Australia) at an excitation/emission of 355/460 nm.

HT29 colon cells [7] = experiment: DCFDA cellular ROS production assay; assay type: cell-based, human; conditions: GI50 drug concentration (TBHP 20 μM)
Description: All values are expressed as relative fluorescence units (RFU).
To evaluate the presence of ROS in treated cells, a DCFDA/H2DCFDA-cellular ROS Assay Kit (Abcam, Cambridge, MA, USA) was used, as previously described. A total of 25,000 cells/mL of HT29 cells in DMEM were seeded in 96-well plates. Cells were washed with 1X kit buffer, and then stained with 25 μM 2′,7′-dichlorofluorescein diacetate (DCFH-DA) and incubated for 45 min. DCFH-DA was then removed, and cells were then re-washed with 1X kit buffer, after which phenol red free media was added. Cells were then treated with a GI50 drug concentration for each complex. The plates were directly scanned to measure fluorescence (relative fluorescence units (RFU)) at the time points indicated the Glo-Max®-Multimode microplate reader (Promega Corporation, Alexandra, VIC, Australia) at an excitation/emission of 485/535 nm, which is directly correlated to the DCFH-DA that is deacetylated by cellular esterases and then oxidised by ROS to the fluorescent compound DCF. To generate the positive control (20 μM tert-butyl hydroperoxide (TBHP)), cells were washed with 1X kit buffer, and stained with DCFDA (25 μM) for 45 min; this was removed and TBHP was added in phenol red free media, and the resulting solution was scanned as described above.

Row | SMILES | GI50 [1] [nM] | GI50 [2] [nM] | GI50 (A2780 ovarian) [nM] | GI50 (HT29 colon) [nM] | GI50 (H460 lung) [nM] | GI50 (U87 glioblastoma) [nM] | GI50 (Du145 prostate) [nM] | GI50 (A431 skin) [nM] | GI50 (MIA pancreas) [nM] | GI50 (SJ-G2 glioblastoma) [nM] | GI50 (BE2-C neuroblastoma) [nM] | GI50 (MCF-7 breast) [nM] | GI50 [3] [nM] | ROS Production (HT29 colon cells [4]; 24 h) [RFU] | ROS Production (HT29 colon cells [4]; 48 h) [RFU] | ROS Production (HT29 colon cells [4]; 72 h) [RFU] | MtMP Changes (HT29 colon cells [5]; 24 h, control 542 ± 4) [RFU] | MtMP Changes (HT29 colon cells [5]; 48 h, control 507 ± 11) [RFU] | MtMP Changes (HT29 colon cells [5]; 72 h, control 449 ± 10) [RFU] | HDAC Inhibition at 72 h [6] | further results
1 | O=C1[O][Pt]2([NH][C@@H]3CCCC[C@H]3[NH]2)[O]C1=O (relative stereo) [Oxaliplatin, trans-L(1R,2R-diaminocyclohexane) oxalatoplatinum(II)] | 800 ± 100 | 1460 ± 320 | 160 ± 100 | 900 ± 200 | 1600 ± 100 | 1800 ± 200 | 2900 ± 400 | 4100 ± 500 | 900 ± 200 | 3000 ± 1200 | 900 ± 200 | 500 ± 100 | – | – | – | – | – | – | – | – | –
2 | Cc1cc2cccnc2c2ncccc12.N[C@H]1CCCC[C@@H]1N.[OH][Pt+2][OH] [5MESS(IV)(OH)2] | 130 ± 22 | 443 ± 81 | 240 ± 9 | 60 ± 6 | 60 ± 5 | 900 ± 58 | 41 ± 5 | 360 ± 58 | 160 ± 29 | 640 ± 70 | 1400 ± 300 | 1200 ± 390 | 130 ± 19 | 234 ± 1 | 323 ± 9 | 335 ± 2 | 311 ± 3 | 291 ± 9 | 228 ± 7 | 3119 ± 9 RFU | –
3 | Cc1cc2cccnc2c2ncccc12.N[C@H]1CCCC[C@@H]1N.[Pt+2] [5MESS, [Pt^II(5-Mephen)(SS-DACH)]^2+] | 34 ± 2 | 117 ± 12 | 61 ± 10 | 33 ± 4 | 41 ± 5 | 320 ± 26 | 22 ± 3 | 120 ± 25 | 48 ± 2 | 220 ± 10 | 270 ± 38 | 200 ± 12 | 30 ± 2 | 204 ± 4 | 205 ± 3 | 188 ± 3 | 283 ± 4 | 261 ± 9 | 189 ± 11 | 2124 RFU and 2124 ± 21 RFU | –
4 | Cc1c(C)c2cccnc2c2ncccc12.N[C@H]1CCCC[C@@H]1N.[OH][Pt+2][OH] [56MESS(IV)(OH)2] | 170 ± 120 | 151 ± 50 | 59 ± 7 | 36 ± 7 | 190 ± 150 | 190 ± 23 | 15 ± 2.6 | 120 ± 22 | 43 ± 2.5 | 210 ± 45 | 240 ± 22 | 480 ± 140 | 61 ± 7 | 259 ± 3 | 356 ± 11 | 438 ± 7 | 291 ± 9 | 221 ± 5 | 188 ± 5 | 3011 ± 23 RFU | –
5 | N.N.O=C([O-])C1(C(=O)[O-])CCC1.[Pt+2] [Carboplatin, cis-diammine(1,1-cyclobutanecarboxylato)platinum(II)] | > 50000 | 32200 | 9200 ± 2900 | > 50000 | 14000 | > 50000 | 15000 | 24000 | > 50000 | 5700 ± 200 | 19000 | > 50000 | > 50000 | – | – | – | – | – | – | – | –
6 | N#CC(C#N)=NNc1ccc(OC(F)(F)F)cc1 [FCCP, carbonyl cyanide 4-(trifluoromethoxy) phenylhydrazone] | – | – | – | – | – | – | – | – | – | – | – | – | – | – | – | – | 234 ± 3 | 151 ± 7 | 84 ± 5 | – | –
7 | N[C@H]1CCCC[C@@H]1N.[OH][Pt+2][OH].c1cnc2c(c1)ccc1cccnc12 [PHENSS(IV)(OH)2] | 1300 ± 350 | 3320 ± 880 | 800 ± 84 | 710 ± 300 | 1700 ± 200 | 4900 ± 610 | 310 ± 92 | 4300 ± 530 | 3400 ± 2200 | 1700 ± 350 | 3000 ± 530 | 16000 | 1700 ± 200 | 144 ± 5 | 273 ± 4 | 303 ± 1 | 328 ± 7 | 314 ± 6 | 234 ± 11 | 4107 ± 19 RFU | –
8 | CC(C)(C)OO [TBHP, tert-butyl hydroperoxide] | – | – | – | – | – | – | – | – | – | – | – | – | – | – | – | – | – | – | – | – | ROS Production (HT29 colon cells [7]; 24 h, control 60 ± 3): 614 ± 21 RFU; ROS Production (HT29 colon cells [7]; 48 h, control 63 ± 4): 477 ± 23 RFU; ROS Production (HT29 colon cells [7]; 72 h, control 85 ± 6): 311 ± 18 RFU
9 | CC(/C=C/C(=O)NO)=C\[C@@H](C)C(=O)c1ccc(N(C)C)cc1 [Trichostatin A (TSA), Trichostatin A] | – | – | – | – | – | – | – | – | – | – | – | – | – | – | – | – | – | – | – | 749 ± 8 RFU | HDAC Inhibition at 72 h ([6]; listed as TSA): 749 RFU
